Measured values taken from patent US20140309192A1, “MODULATORS OF THE G PROTEIN-COUPLED MAS RECEPTOR AND THE TREATMENT OF DISORDERS RELATED THERETO” (ARENA PHARMACEUTICALS, INC., priority 2011, published 2014).
Counter-ions that a name gives are not always drawn.

Assay: Dynamic moisture-sorption (DMS)
Type: physicochemical
Settings: for total weight gain from the dried state (DMS) / hygroscopicity (DMS): 25° C.; for weight gain at 90% RH and 25° C. (DMS): after a drying period
Method: A dynamic moisture-sorption (DMS) study was conducted using a dynamic moisture-sorption analyzer, VTI Corporation, SGA-100. Samples were prepared for DMS analysis by placing 5 mg to 20 mg of a sample in a tared sample holder. The sample was placed on the hang-down wire of the VTI balance. A drying step was run, typically at 40° C. and 0.5-1% RH for 1 h. The isotherm temperature is 25° C. Defined % RH holds typically ranged from 10% RH to 90% RH, with intervals of 10 to 20% RH. A % weight change smaller than 0.010% over 10 min, or up to 2 h, whichever occurred first, was required before continuing to the next % RH hold. The water content of the sample equilibrated as described above was determined at each % RH hold.

## NC(=O)[C@H](CO)NCc1ccc(C(=O)Nc2ccc(Cl)cc2N2CCN(CCC(F)(F)F)CC2)c(F)c1F [Compound 170 dihydrochloride solvate]
  total weight gain from the dried state (DMS): The total weight gain from the dried state was about 2%, thus

## NC(=O)[C@H](CO)NCc1ccc(C(=O)Nc2ccc(Cl)cc2N2CCN(CCC(F)(F)F)CC2)c(F)c1F [Compound 170, (S)-4-((1-Amino-3-hydroxy-1-oxopropan-2-ylamino)methyl)-N-(4-chloro-2-(4-(3,3,3-trifluoropropyl)piperazin-1-yl)phenyl)-2,3-difluorobenzamide]
  hygroscopicity (DMS): non-hygroscopic
  weight gain at 90% RH and 25° C. (DMS): ~0.1%

## Cl.Cl.NC(=O)[C@H](CO)NCc1ccc(C(=O)Nc2ccc(Cl)cc2N2CCN(CCC(F)(F)F)CC2)c(F)c1F [Compound 170 dihydrochloride, (S)-4-((1-amino-3-hydroxy-1-oxopropan-2-ylamino)methyl)-N-(4-chloro-2-(4-(3,3,3-trifluoropropyl)piperazin-1-yl)phenyl)-2,3-difluorobenzamide dihydrochloride]
  weight gain at 90% RH and 25° C. (DMS): drying period, was about 3.4%. It was shown by PXRD of the

## NC(=O)[C@H](CO)NCc1ccc(C(=O)Nc2ccc(Cl)cc2N2CCN(CCC(F)(F)F)CC2)c(F)c1F [Compound 170 (Example 2.5B)]
  hygroscopicity (DMS): FIG. 11: This polymorph of the free base is non-hygroscopic,
  weight gain at 90% RH and 25° C. (DMS): increasing ~0.1% weight at 90% RH and 25 °C

## NC(=O)[C@H](CO)NCc1ccc(C(=O)Nc2ccc(Cl)cc2N2CCN(CCC(F)(F)F)CC2)c(F)c1F [Compound 170 dihydrochloride hydrate]
  water picked up from 30% RH to 90% RH at 25° C. (DMS): 0.7% water from 30% RH to 90% RH at 25 °C
  total weight gain from the dried state (DMS): dried state was about 2.5%. The sample picked up only about
